Test results taken from article PMC6120666 (The EMBO Journal, 2018).

Assays:
Test in all cases: Drug affinity chromatography with c-ponatinib and LC-MS/MS (ponatinib interactome)
Assay type in all cases: binding
[1] = target: T1, proteins of U2OS cell lysate (Homo sapiens, UniProt Q14974); conditions: KPNB1, Importin subunit beta-1
T1 construct: Proteins enriched by c-ponatinib from U2OS cell lysate; endogenous in cells; host or cells: U2OS cell lysate
Outline: (§1)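 U2OS cell lysate in NP-40 lysis buffer (2 mg protein per pulldown) was incubated with amine-derivatized NHS beads for 2 h at 4 °C. Bound proteins were washed, eluted with 100 mM formic acid, reduced, alkylated and trypsin-digested, then identified by nano-UPLC–MS/MS on Orbitrap instruments with a 60 min gradient.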

[2] = target: T2, proteins of U2OS cell lysate (Homo sapiens, UniProt P36542); conditions: ATP5C1, ATP synthase subunit gamma, mitochondrial
T2 construct: Proteins enriched by c-ponatinib from U2OS cell lysate; endogenous in cells; host or cells: U2OS cell lysate
T2 sequence (P36542 26-298): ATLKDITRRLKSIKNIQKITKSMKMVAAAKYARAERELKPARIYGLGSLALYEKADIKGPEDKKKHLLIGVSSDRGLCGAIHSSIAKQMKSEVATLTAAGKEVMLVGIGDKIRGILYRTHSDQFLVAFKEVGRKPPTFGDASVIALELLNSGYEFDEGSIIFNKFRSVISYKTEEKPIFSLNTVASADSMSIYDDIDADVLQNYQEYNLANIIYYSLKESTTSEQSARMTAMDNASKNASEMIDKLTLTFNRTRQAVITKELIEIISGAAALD
Outline: as §1

[3] = target: T3, proteins of U2OS cell lysate (Homo sapiens, UniProt P08238); conditions: HSP90AB1, Heat shock protein HSP 90-beta
T3 construct: Proteins enriched by c-ponatinib from U2OS cell lysate; endogenous in cells; host or cells: U2OS cell lysate
Outline: as §1

[4] = target: T4, proteins of U2OS cell lysate (Homo sapiens, UniProt O75521); conditions: ECI2, Enoyl-CoA delta isomerase 2, mitochondrial
T4 construct: Proteins enriched by c-ponatinib from U2OS cell lysate; endogenous in cells; host or cells: U2OS cell lysate
T4 sequence (O75521 39-394): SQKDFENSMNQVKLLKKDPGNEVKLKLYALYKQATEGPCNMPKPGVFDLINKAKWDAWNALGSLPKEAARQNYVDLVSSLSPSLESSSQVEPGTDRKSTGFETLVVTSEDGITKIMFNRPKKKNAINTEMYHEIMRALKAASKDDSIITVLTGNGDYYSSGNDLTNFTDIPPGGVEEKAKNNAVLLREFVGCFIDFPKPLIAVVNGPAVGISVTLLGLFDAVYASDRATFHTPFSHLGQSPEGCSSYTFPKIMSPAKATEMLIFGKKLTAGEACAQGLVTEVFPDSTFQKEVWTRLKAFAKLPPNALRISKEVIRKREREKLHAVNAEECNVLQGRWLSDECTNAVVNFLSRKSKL
Outline: as §1

[5] = target: T5, proteins of U2OS cell lysate (Homo sapiens, UniProt P51665); conditions: PSMD7, 26S proteasome non-ATPase regulatory subunit 7
T5 construct: Proteins enriched by c-ponatinib from U2OS cell lysate; endogenous in cells; host or cells: U2OS cell lysate
Outline: as §1

[6] = target: T6, proteins of U2OS cell lysate (Homo sapiens, UniProt P31946); conditions: YWHAB, 14-3-3 protein beta/alpha
T6 construct: Proteins enriched by c-ponatinib from U2OS cell lysate; endogenous in cells; host or cells: U2OS cell lysate
T6 sequence (P31946 whole entry): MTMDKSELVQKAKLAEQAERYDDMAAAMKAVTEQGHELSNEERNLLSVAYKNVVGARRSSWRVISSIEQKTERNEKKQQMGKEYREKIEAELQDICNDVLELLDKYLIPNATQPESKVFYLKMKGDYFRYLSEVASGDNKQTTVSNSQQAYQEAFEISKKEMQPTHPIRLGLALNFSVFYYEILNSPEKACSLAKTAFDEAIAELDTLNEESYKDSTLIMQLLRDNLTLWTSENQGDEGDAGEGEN
Outline: as §1

[7] = target: T7, proteins of U2OS cell lysate (Homo sapiens, UniProt P09382); conditions: LGALS1, Galectin-1
T7 construct: Proteins enriched by c-ponatinib from U2OS cell lysate; endogenous in cells; host or cells: U2OS cell lysate
T7 sequence (P09382 whole entry): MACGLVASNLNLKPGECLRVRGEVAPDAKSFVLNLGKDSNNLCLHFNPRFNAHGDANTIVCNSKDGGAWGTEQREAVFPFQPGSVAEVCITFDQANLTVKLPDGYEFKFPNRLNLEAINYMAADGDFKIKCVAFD
Outline: as §1

[8] = target: T8, proteins of U2OS cell lysate (Homo sapiens, UniProt P62269); conditions: RPS18, 40S ribosomal protein S18
T8 construct: Proteins enriched by c-ponatinib from U2OS cell lysate; endogenous in cells; host or cells: U2OS cell lysate
Outline: as §1

[9] = target: T9, proteins of U2OS cell lysate (Homo sapiens, UniProt P35580); conditions: MYH10, Myosin-10
T9 construct: Proteins enriched by c-ponatinib from U2OS cell lysate; endogenous in cells; host or cells: U2OS cell lysate
Outline: as §1

[10] = target: T10, proteins of U2OS cell lysate (Homo sapiens, UniProt P78371); conditions: CCT2, T-complex protein 1 subunit beta
T10 construct: Proteins enriched by c-ponatinib from U2OS cell lysate; endogenous in cells; host or cells: U2OS cell lysate
Outline: as §1

[11] = target: T11, proteins of U2OS cell lysate (Homo sapiens, UniProt P08559); conditions: PDHA1, Pyruvate dehydrogenase E1 component subunit alpha, somatic form, mitochondrial
T11 construct: Proteins enriched by c-ponatinib from U2OS cell lysate; endogenous in cells; host or cells: U2OS cell lysate
T11 sequence (P08559 30-390): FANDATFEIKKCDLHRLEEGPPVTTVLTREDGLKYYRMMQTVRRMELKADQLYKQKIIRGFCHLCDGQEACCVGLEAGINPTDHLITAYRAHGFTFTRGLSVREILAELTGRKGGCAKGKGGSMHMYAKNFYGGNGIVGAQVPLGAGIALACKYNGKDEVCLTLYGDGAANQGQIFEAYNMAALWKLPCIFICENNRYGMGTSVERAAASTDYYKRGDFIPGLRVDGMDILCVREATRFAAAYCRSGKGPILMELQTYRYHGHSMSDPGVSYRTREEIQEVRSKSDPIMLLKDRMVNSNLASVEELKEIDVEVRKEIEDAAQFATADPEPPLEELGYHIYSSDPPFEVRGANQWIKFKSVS
Outline: as §1

[12] = target: T12, proteins of U2OS cell lysate (Homo sapiens, UniProt P04843); conditions: RPN1, Dolichyl-diphosphooligosaccharide--protein glycosyltransferase subunit 1
T12 construct: Proteins enriched by c-ponatinib from U2OS cell lysate; endogenous in cells; host or cells: U2OS cell lysate
T12 sequence (P04843 24-607): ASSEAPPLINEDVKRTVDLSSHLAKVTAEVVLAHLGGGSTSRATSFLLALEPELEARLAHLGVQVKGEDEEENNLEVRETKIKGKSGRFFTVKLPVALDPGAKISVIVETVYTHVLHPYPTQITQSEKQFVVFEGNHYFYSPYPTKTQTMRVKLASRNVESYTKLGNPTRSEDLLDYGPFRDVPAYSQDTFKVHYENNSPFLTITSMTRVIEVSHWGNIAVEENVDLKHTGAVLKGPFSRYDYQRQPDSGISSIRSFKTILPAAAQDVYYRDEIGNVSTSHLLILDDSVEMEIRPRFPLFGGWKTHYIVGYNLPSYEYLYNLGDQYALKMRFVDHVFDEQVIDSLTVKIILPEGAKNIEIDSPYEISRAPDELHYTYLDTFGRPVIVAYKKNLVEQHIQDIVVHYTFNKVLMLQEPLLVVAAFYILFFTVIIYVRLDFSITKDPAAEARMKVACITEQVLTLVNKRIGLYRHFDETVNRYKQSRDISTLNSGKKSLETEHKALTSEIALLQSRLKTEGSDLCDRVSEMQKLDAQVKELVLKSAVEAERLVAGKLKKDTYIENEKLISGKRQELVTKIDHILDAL
Outline: as §1

[13] = target: T13, proteins of U2OS cell lysate (Homo sapiens, UniProt P12931); conditions: SRC, Proto-oncogene tyrosine-protein kinase Src
T13 construct: Proteins enriched by c-ponatinib from U2OS cell lysate; endogenous in cells; host or cells: U2OS cell lysate
T13 sequence (P12931 whole entry): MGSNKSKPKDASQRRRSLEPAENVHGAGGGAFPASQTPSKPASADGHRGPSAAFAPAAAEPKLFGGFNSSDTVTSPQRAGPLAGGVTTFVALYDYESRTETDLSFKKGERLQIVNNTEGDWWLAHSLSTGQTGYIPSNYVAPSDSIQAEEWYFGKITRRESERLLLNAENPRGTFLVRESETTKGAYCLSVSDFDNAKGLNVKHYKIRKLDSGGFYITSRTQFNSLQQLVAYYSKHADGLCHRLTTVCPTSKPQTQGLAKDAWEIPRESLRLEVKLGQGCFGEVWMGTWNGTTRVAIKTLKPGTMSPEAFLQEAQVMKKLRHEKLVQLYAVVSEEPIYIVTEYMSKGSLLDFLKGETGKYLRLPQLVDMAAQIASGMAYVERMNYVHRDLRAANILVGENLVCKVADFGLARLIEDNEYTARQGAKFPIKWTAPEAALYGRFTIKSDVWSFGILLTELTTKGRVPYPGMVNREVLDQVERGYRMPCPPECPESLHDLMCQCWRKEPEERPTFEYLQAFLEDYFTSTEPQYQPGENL
Outline: as §1

[14] = target: T14, proteins of U2OS cell lysate (Homo sapiens, UniProt P62851); conditions: RPS25, 40S ribosomal protein S25
T14 construct: Proteins enriched by c-ponatinib from U2OS cell lysate; endogenous in cells; host or cells: U2OS cell lysate
Outline: as §1

[15] = target: T15, proteins of U2OS cell lysate (Homo sapiens, UniProt P26640); conditions: VARS, Valine--tRNA ligase
T15 construct: Proteins enriched by c-ponatinib from U2OS cell lysate; endogenous in cells; host or cells: U2OS cell lysate
T15 sequence (P26640 whole entry): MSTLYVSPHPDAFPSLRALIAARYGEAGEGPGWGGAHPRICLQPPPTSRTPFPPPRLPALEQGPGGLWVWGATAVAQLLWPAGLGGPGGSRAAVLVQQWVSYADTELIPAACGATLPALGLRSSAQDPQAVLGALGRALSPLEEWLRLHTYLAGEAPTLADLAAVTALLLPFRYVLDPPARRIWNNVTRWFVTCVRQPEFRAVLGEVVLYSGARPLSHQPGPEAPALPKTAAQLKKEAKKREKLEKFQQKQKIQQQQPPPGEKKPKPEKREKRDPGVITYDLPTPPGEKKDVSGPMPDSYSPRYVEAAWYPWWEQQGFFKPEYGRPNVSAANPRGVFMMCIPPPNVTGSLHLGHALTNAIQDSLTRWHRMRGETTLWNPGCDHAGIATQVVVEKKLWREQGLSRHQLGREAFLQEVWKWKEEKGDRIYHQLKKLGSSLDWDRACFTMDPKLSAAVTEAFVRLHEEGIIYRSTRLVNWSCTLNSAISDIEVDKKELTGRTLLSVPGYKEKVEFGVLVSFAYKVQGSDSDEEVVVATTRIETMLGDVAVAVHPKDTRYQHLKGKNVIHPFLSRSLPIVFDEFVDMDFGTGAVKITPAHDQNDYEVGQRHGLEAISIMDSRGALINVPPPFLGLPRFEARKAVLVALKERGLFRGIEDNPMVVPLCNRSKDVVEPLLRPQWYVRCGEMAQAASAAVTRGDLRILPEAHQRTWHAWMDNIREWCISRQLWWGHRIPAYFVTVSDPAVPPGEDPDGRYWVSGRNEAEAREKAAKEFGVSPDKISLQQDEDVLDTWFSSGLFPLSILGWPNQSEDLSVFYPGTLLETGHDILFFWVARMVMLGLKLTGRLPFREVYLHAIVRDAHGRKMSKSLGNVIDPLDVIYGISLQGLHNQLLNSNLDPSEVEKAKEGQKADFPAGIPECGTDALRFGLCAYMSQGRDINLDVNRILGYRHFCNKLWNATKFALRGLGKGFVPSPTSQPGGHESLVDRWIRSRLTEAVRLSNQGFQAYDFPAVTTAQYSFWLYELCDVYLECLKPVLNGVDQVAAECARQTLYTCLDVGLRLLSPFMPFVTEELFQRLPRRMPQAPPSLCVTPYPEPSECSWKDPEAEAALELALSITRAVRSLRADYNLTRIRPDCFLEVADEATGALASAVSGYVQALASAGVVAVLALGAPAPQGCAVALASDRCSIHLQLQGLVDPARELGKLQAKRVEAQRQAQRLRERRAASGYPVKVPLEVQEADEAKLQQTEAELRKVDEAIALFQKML
Outline: as §1

[16] = target: T16, proteins of U2OS cell lysate (Homo sapiens, UniProt P62258); conditions: YWHAE, 14-3-3 protein epsilon
T16 construct: Proteins enriched by c-ponatinib from U2OS cell lysate; endogenous in cells; host or cells: U2OS cell lysate
Outline: as §1

[17] = target: T17, proteins of U2OS cell lysate (Homo sapiens, UniProt O95819); conditions: MAP4K4, Mitogen-activated protein kinase kinase kinase kinase 4
T17 construct: Proteins enriched by c-ponatinib from U2OS cell lysate; endogenous in cells; host or cells: U2OS cell lysate
Outline: as §1

[18] = target: T18, proteins of U2OS cell lysate (Homo sapiens, UniProt P50990); conditions: CCT8, T-complex protein 1 subunit theta
T18 construct: Proteins enriched by c-ponatinib from U2OS cell lysate; endogenous in cells; host or cells: U2OS cell lysate
Outline: as §1

[19] = target: T19, proteins of U2OS cell lysate (Homo sapiens, UniProt P10606); conditions: captured protein COX5B, Rank 183
T19 construct: Proteins enriched by c-ponatinib from U2OS cell lysate; endogenous in cells; host or cells: U2OS cell lysate
T19 sequence (P10606 32-129): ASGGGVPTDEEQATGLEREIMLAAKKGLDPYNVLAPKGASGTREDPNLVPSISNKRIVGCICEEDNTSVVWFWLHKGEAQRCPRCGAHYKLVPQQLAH
Outline: as §1

T1 sequence (Q14974 whole entry): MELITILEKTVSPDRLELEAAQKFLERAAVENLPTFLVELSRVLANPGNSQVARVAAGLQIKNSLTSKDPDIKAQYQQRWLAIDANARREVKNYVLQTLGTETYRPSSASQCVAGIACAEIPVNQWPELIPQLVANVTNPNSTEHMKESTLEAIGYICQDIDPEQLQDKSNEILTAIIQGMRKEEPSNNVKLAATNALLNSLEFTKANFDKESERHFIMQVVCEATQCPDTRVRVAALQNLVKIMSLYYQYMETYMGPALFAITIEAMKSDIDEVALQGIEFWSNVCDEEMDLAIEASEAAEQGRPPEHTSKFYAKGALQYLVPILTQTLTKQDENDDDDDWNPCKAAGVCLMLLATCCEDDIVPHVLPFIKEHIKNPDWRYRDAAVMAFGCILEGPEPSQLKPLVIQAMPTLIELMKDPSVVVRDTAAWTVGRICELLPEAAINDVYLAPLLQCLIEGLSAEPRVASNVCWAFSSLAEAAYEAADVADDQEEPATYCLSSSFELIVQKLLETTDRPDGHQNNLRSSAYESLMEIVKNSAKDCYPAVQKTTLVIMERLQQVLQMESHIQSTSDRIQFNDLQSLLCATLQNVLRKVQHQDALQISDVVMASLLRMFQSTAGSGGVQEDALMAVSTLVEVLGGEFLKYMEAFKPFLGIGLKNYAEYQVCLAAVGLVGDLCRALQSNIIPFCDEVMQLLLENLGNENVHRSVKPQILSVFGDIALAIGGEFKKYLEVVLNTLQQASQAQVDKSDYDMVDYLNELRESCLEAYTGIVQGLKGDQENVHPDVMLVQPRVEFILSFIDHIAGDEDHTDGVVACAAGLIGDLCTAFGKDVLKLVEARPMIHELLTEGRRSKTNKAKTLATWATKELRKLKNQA

| Compound | Average LFQ PON_WT [1] | Average LFQ PON_WT [2] | Average LFQ PON_WT [3] | Average LFQ PON_WT [4] | Average LFQ PON_WT [5] | Average LFQ PON_WT [6] | Average LFQ PON_WT [7] | Average LFQ PON_WT [8] | Average LFQ PON_WT [9] | Average LFQ PON_WT [10] | Average LFQ PON_WT [11] | Average LFQ PON_WT [12] | Average LFQ PON_WT [13] | Average LFQ PON_WT [14] | Average LFQ PON_WT [15] | Average LFQ PON_WT [16] | Average LFQ PON_WT [17] | Average LFQ PON_WT [18] | Average LFQ intensity [19] |
| --- | --- | --- | --- | --- | --- | --- | --- | --- | --- | --- | --- | --- | --- | --- | --- | --- | --- | --- | --- |
| Cc1ccc(C(=O)Nc2ccc(CN3CCN(C)CC3)c(C(F)(F)F)c2)cc1C#Cc1cnc2cccnn12 [PON] | 23.6067 | 21.058 | 24.5074 | 24.0947 | 21.0889 | 23.524 | 23.8412 | 21.0717 | 20.7261 | 24.048 | 21.0192 | 23.8993 | 24.0256 | 23.6854 | 20.4235 | 21.3893 | 26.8473 | 24.1007 |  |
| Cc1ccc(C(=O)Nc2ccc(CN3CCN(CCCN)CC3)c(C(F)(F)F)c2)cc1C#Cc1cnc2cccnn12 [c-ponatinib, reference compound] |  |  |  |  |  |  |  |  |  |  |  |  |  |  |  |  |  |  | 22.1378 |
